Measured values published in patent publication US6574913B2, “Semiochemical and sonic signals for monitoring and control of clothes moths” (priority 2001, dated 2003).

System: T. bisselliella
Experiment: Arena bioassay: captures of moths on sticky traps baited with test or control stimuli
Format: in vivo, Tineola bisselliella
Conditions: Exps. 29-31; 16:Ester 480 ng plus Z9-16:Ester 840 ng tested together
Protocol: Tactic responses of T. bisselliella to volatile stimuli from larval habitat were assessed in a closed cylindrical Plexiglas container (125 cm diameter, 60 cm height). Thin cardboard discs (10 cm diameter) coated with Tanglefoot on the upper side were placed on the arena floor 80 cm apart from each other. Platforms suspended above the centre of the coated discs supported randomly assigned test or control stimuli. Control stimuli consisted of cardboard silhouettes visually resembling test stimuli. Per experiment 10 replicates with 25 adult moths each were employed. Moths were released during the scotophase from a Petri dish in the centre of the arena after 30-min of acclimation. After 12 hours of experimental time, moths captured on sticky discs (FIG. 1) were recorded as responders and statistically analysed.

SMILES | trap captures, attraction by synthetic male pheromone components
CCCCCC/C=C\CCCCCCCC(=O)OC [(Z)-9-hexadecenoic acid methyl ester] | attracted both male and virgin female T. bisselliella
CCCCCCCCCCCCCCCC(=O)OC [hexadecanoic acid methyl ester] | attracted both male and virgin female T. bisselliella

Same assay, conditions: Exps. 34-37; tested together in various ratios

SMILES | trap captures of males, attraction by synthetic female pheromone components
CCCC/C=C\CCCCCCCCC/C=C/C=O [(E,Z)-2,13:octadecadienal] | attracted male T. bisselliella
CCCC/C=C\CCCCCCCCC/C=C/CO [(E,Z)-2,13:octadecadienol] | attracted male T. bisselliella

Same assay, conditions: geranylacetone (44 ng) and nonanal (3.5 μg) tested together, equivalent quantities; female or male moths

SMILES | trap captures versus dried muskrat pelt
CC(=O)CC/C=C(\C)CCC=C(C)C [geranylacetone] | more attractive than natural (muskrat) pelt
CCCCCCCCC=O [nonanal] | more attractive than natural (muskrat) pelt

System: T. bisselliella antenna
Experiment: Coupled gas chromatographic-electroantennographic detection (GC-EAD)
Parameters: species or system Tineola bisselliella
Conditions: male and gravid female T. bisselliella antenna; 5 pelt-min of squirrel pelt volatile extract
Protocol: Samples of animal pelt (150 cm^2) were aerated for one week in a cylindrical Pyrex glass chamber. A water-aspirator was used to draw charcoal-filtered, humidified air at 2 L/min through the chamber and a glass column (14 cm×13 mm O. D.) filled with Porapak Q. Volatiles captured on Porapak Q were eluted with 5 ml of redistilled pentane and the eluent concentrated to 2 ml by distillation in a 30 cm Dufton column, adjusting the volatile extract so that 2 μl equalled 5 pelt-min of volatile collection. Aliquots of 2.5 pelt-min equivalents of Porapak Q-captured volatile extracts were analysed by coupled gas chromatographic-electroantennographic detection (GC-EAD) (28) (FIG. 2).
FIG. 2 illustrates flame ionization detector (FID) and electroantennographic detector (EAD ♂: male T. bisselliella antenna; EAD ♀: gravid female T. bisselliella antenna) responses to 5 pelt-min of squirrel pelt volatile extract. Chromatography: Hewlett Packard (HP) 5890A gas chromatograph equipped with a fused silica column (30 m×0.25 mm ID) coated with DB-5; linear flow velocity of carrier gas: 35 cm/sec; injector and FID detector temperature: 240° C.; temperature program: 1 min at 50° C., 20° C./min to 70° C. then 7.5° C./min to 280° C. (J & W Scientific, Folsom, Calif. 95630). EAD-active compounds were analyzed by GC-mass spectrometry (MS) in full scan electron impact (EI) and chemical ionization (isobutane) (CI) modes, using a Varian Saturn II Ion Trap GC-MS and a HP 5985B GC-MS. Antennally-active compounds were identified as follows: 1. hexanal (20.0); 2. heptanal (35.0); 3. octanal (55.0); 4. nonanal (80.0); 5. decanal (20.0); 6. dodecanal (4.0); 7. tridecanal (6.0); 8. tetradecanal (5.0); 9. pentadecanal (0.8); 10. hexadecanal (1.0); 11. heptadecanal (0.7); 12. octadecanal (0.1); 13. heptanol (10.0); 14. nonanol (10.0); 15. decanol (12.0); 16. undecanol (200.0); 17. dodecanol (10.0); 18. tridecanol (70.0); 19. tetradecanol (3.0); 20. pentadecanol (2.0); 21. hexadecanol (0.3); 22. heptadecanol (0.5); 23. octadecanol (0.1); 24. tetradecane (20.0); 25. pentadecane (100.0); 26. hexadecane (100.0); 27. eicosane (20.0); 28. uneicosane (0.7); 29.2-undecanal (4.0); 30. E2-nonenal (9.0); 31. E2-decenal (11.0); 32. geranylacetone (1.0). Numbers in brackets refer to nanogram quantities present in 15 pelt-min of aeration of dried, untanned animal pelt (150 cm^2).
The bodies of two hundred 24-48 hour old virgin male T. bisselliella were extracted for 15 min in methanol.
FIG. 6 illustrates flame ionization detector (FID) and electroantennographic detection (EAD: male T. bisselliella antenna) responses to one male equivalent of male T. bisselliella body extract. EAD-active compounds 1-3 were identified by GC-mass spectrometry as 1. hexadecanoic acid methyl ester; 2. (Z)-9-hexadecenoic acid methyl ester; and 3. octadecanoic acid methyl ester. […] Chromatography: Hewlett Packard (HP) 5890A gas chromatograph equipped with a fused silica column (30 m×0.32 mm ID) coated with DB-23 (J & W Scientific, Folsom, Calif. 95630); linear flow velocity of carrier gas: 35 cm/sec; injector and FID detector temperature: 240° C.; temperature program: 1 min at 50° C., 10° C./min to 200° C. EAD-active compounds were identified by GC-mass spectrometry (MS) in full scan electron impact (EI) mode using a Varian Saturn II Ion Trap GC-MS.
Terminal abdominal segments with pheromone glands of one-hundred 12-48 hour-old virgin females were severed and extracted for 5-15 min in hexane.
FIG. 10 illustrates flame ionization detector (FID) and electroantennographic detector (EAD: male T. bisselliella antenna) responses to one female equivalent of female T. bisselliella pheromone gland extract. EAD-active compounds 1-3 were identified as 1. (E,Z)-2,13:octadecadienol (E2,Z13-18:OH) and 2. (E,Z)-2,13:octadecadienal (E2,Z13-18:Ald). […]

SMILES | electroantennographic detector (EAD) response to components of squirrel pelt volatile extract
CCCCCCCCCC(C)=O [2-undecanal] | Antennally-active
CCCCCCC/C=C/C=O [E2-decenal] | Antennally-active
CCCCCC/C=C/C=O [E2-nonenal] | Antennally-active
CCCCCCCCCC=O [decanal] | Antennally-active
CCCCCCCCCCO [decanol] | Antennally-active
CCCCCCCCCCCC=O [dodecanal] | Antennally-active
CCCCCCCCCCCCO [dodecanol] | Antennally-active
CCCCCCCCCCCCCCCCCCCC [eicosane] | Antennally-active
CC(=O)CC/C=C(\C)CCC=C(C)C [geranylacetone] | Antennally-active
CCCCCCCCCCCCCCCCC=O [heptadecanal] | Antennally-active
CCCCCCCCCCCCCCCCCO [heptadecanol] | Antennally-active
CCCCCCC=O [heptanal] | Antennally-active
CCCCCCCO [heptanol] | Antennally-active
CCCCCCCCCCCCCCCC=O [hexadecanal] | Antennally-active
CCCCCCCCCCCCCCCC [hexadecane] | Antennally-active
CCCCCCCCCCCCCCCCO [hexadecanol] | Antennally-active

SMILES | electroantennographic detector (EAD) response to components of squirrel pelt volatile extract
CCCCCC=O [hexanal] | Antennally-active
CCCCCCCCC=O [nonanal] | Antennally-active
CCCCCCCCCO [nonanol] | Antennally-active
CCCCCCCCCCCCCCCCCC=O [octadecanal] | Antennally-active
CCCCCCCCCCCCCCCCCCO [octadecanol] | Antennally-active
CCCCCCCC=O [octanal] | Antennally-active
CCCCCCCCCCCCCCC=O [pentadecanal] | Antennally-active
CCCCCCCCCCCCCCC [pentadecane] | Antennally-active
CCCCCCCCCCCCCCCO [pentadecanol] | Antennally-active
CCCCCCCCCCCCCC=O [tetradecanal] | Antennally-active
CCCCCCCCCCCCCC [tetradecane] | Antennally-active
CCCCCCCCCCCCCCO [tetradecanol] | Antennally-active
CCCCCCCCCCCCC=O [tridecanal] | Antennally-active
CCCCCCCCCCCCCO [tridecanol] | Antennally-active
CCCCCCCCCCCO [undecanol] | Antennally-active
CCCCCCCCCCCCCCCCCCCCC [uneicosane] | Antennally-active

Same assay, conditions: male antenna, one female equivalent

SMILES | EAD response to components of female T. bisselliella pheromone gland extract
CCCC/C=C\CCCCCCCCC/C=C/C=O [(E,Z)-2,13:octadecadienal] | EAD-active
CCCC/C=C\CCCCCCCCC/C=C/CO [(E,Z)-2,13:octadecadienol] | EAD-active

Same assay, conditions: male antenna, one male equivalent; similar responses with female antennae

SMILES | EAD response to components of male T. bisselliella body extract
CCCCCC/C=C\CCCCCCCC(=O)OC [(Z)-9-hexadecenoic acid methyl ester] | EAD-active
CCCCCCCCCCCCCCCC(=O)OC [hexadecanoic acid methyl ester] | EAD-active
CCCCCCCCCCCCCCCCCC(=O)OC [octadecanoic acid methyl ester] | EAD-active

System: T. bisselliella
Experiment: not given
Conditions: literature refs 16, 17; cited from earlier work

SMILES | attractiveness as reported sex pheromone components
CCCC/C=C\CCCCCCCCC/C=C/C=O [(E,Z)-2,13:octadecadienal] | only moderately attractive
CCCCCCCCCCCCCCC/C=C/C=O [E2-octadecenal, reference compound] | only moderately attractive
